Test results as given in ChEMBL document CHEMBL3877300, “Design, synthesis, docking studies and biological evaluation of novel dihydro-1,3,5-triazines as human DHFR inhibitors” (Eur J Med Chem, 2017).

Tests used:
[1] = cells; details: Homo sapiens, A549, 72 h
Description: Antiproliferative activity against human A549 cells after 72 hrs by MTT assay

[2] = Antiproliferative activity against human HepG2 cells after 72 hrs by MTT assay; type: functional, cell-based; details: HepG2, 72 h
[3] = Antiproliferative activity against human MDA-MB-231 cells after 72 hrs by MTT assay; type: functional, cell-based; details: MDA-MB-231, 72 h, read-out: IC50
[4] = cells; details: Homo sapiens, HCT-116, 72 h
Description: Antiproliferative activity against human HCT116 cells after 72 hrs by MTT assay

[5] = Antiproliferative activity against human HL60 cells after 72 hrs by MTT assay; type: functional, cell-based; details: HL-60, 72 h
[6] = biological target: T1, Dihydrofolate reductase (Homo sapiens, UniProt P00374); assay: Inhibition of recombinant human DHFR using DHF as substrate measured every 5 sec over 6 mins in presence of NADPH by UV-Visible spectrophotometric method relative to control
T1 sequence (P00374 whole entry): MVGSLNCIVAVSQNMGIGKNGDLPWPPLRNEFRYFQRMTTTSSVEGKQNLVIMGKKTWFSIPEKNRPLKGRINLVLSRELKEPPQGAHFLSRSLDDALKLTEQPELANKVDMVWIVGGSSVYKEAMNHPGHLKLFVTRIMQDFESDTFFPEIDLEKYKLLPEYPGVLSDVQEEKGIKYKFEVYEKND

Row | Compound | IC50 [1] [nM] | IC50 [2] [nM] | IC50 [3] [nM] | IC50 [4] [nM] | IC50 [5] [nM] | IC50 [6] [nM]
1 | Cc1cc(C)cc(OCCCON2C(N)=NC(N)=NC23CCOCC3)c1 | 710 | 680 | 3570 | 190 | 720 | 
2 | NC1=NC2(CCOCC2)N(OCCCOc2cccc(Cl)c2Cl)C(N)=N1 | 100 | 330 | 140 | 5 | 440 | 
3 | CC(C)(C)c1ccc(OCCCON2C(N)=NC(N)=NC23CCSCC3)cc1 | 1 | 70 | 1 | 1 | 280 | 
4 | NC1=NC2(CCSCC2)N(OCCCOc2ccc(Cl)cc2)C(N)=N1 | 580 | 1100 | 350 | 10 | 430 | 18.3
5 | CC(C)(C)c1ccc(OCCCON2C(N)=NC(N)=NC23CCOCC3)cc1 | 500 |  |  | 1610 | 870 | 3.72
6 | NC1=NC2(CCSCC2)N(OCCCOc2cccc(Cl)c2Cl)C(N)=N1 | 1 | 50 | 1 | 1 | 30 | 
7 | NC1=NC2(CCOCC2)N(OCCCOc2ccccc2Br)C(N)=N1 | 160 | 860 | 910 | 30 | 610 | 
8 | NC1=NC2(CCSCC2)N(OCCCOc2cc(Cl)c(Cl)cc2Cl)C(N)=N1 | > 100000 | > 100000 | 110 | 1 | 730 | 
9 | NC1=NC2(CCSCC2)N(OCCCOc2ccccc2Br)C(N)=N1 | 40 | 90 | 10 | 1 | 180 | 
10 | NC1=NC2(CCOCC2)N(OCCCOc2cc(Cl)c(Cl)cc2Cl)C(N)=N1 | 680 |  |  | 2750 | 2360 | 36
11 | NC1=NC2(CCOCC2)N(OCCCOc2ccccc2)C(N)=N1 | 1080 |  |  | 6010 | 2460 | 86.1
12 | NC1=NC2(CCOCC2)N(OCCCOc2ccc(Br)cc2)C(N)=N1 | 280 |  |  | 320 | 310 | 32.5
13 | NC1=NC2(CCOCC2)N(OCCCOc2cccc(Br)c2)C(N)=N1 | 160 | 320 | 400 | 40 | 560 | 
14 | NC1=NC2(CCSCC2)N(OCCCOc2ccc(Cl)c(Cl)c2)C(N)=N1 | 1 | 70 | 10 | 1 | 140 | 
15 | NC1=NC2(CCCCC2)N(OCCCOc2ccc(Cl)cc2)C(N)=N1 | 990 | 2330 | 1210 | 380 | 580 | 49
